Measured values as given in the supplement of paper PMC10307832.

Key:
Assay in all cases: relative viability (nuclei count vs DMSO), 5 days (fraction); higher = more cells survive
Avagacestat + Pemetrexed = compound: NC(=O)[C@@H](CCC(F)(F)F)N(Cc1ccc(-c2ncon2)cc1F)S(=O)(=O)c1ccc(Cl)cc1 [Avagacestat] + Nc1nc2[nH]cc(CCc3ccc(C(=O)N[C@@H](CCC(=O)O)C(=O)O)cc3)c2c(=O)[nH]1 [Pemetrexed] (partner 0.2 µM)
Method in brief: (§1)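 Lung cancer cell lines in 1536-well plates got either a single drug or a fixed anchor-drug dose together with five library-drug doses (not always all listed) in √10 steps, by pin tool, on the day after seeding. Nuclei were counted after 5 days, and relative viability is the treated-to-vehicle ratio of nuclei counts. Values are medians of duplicate plates.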

Avagacestat + Crizotinib = compound: NC(=O)[C@@H](CCC(F)(F)F)N(Cc1ccc(-c2ncon2)cc1F)S(=O)(=O)c1ccc(Cl)cc1 [Avagacestat] + C[C@@H](Oc1cc(-c2cnn(C3CCNCC3)c2)cnc1N)c1c(Cl)ccc(F)c1Cl [Crizotinib] (partner 1 µM)
Method in brief: as §1

Avagacestat + Dasatinib = compound: NC(=O)[C@@H](CCC(F)(F)F)N(Cc1ccc(-c2ncon2)cc1F)S(=O)(=O)c1ccc(Cl)cc1 [Avagacestat] + Cc1nc(Nc2ncc(C(=O)Nc3c(C)cccc3Cl)s2)cc(N2CCN(CCO)CC2)n1 [Dasatinib] (partner 0.075 µM)
Method in brief: as §1

Avagacestat + Lapatinib = compound: NC(=O)[C@@H](CCC(F)(F)F)N(Cc1ccc(-c2ncon2)cc1F)S(=O)(=O)c1ccc(Cl)cc1 [Avagacestat] + CS(=O)(=O)CCNCc1ccc(-c2ccc3ncnc(Nc4ccc(OCc5cccc(F)c5)c(Cl)c4)c3c2)o1 [Lapatinib] (partner 2 µM)
Method in brief: as §1

| Cell Line | relative viability (Avagacestat + Pemetrexed; first compound 0.08 µM) | relative viability (Avagacestat + Pemetrexed; first compound 0.253 µM) | relative viability (Avagacestat + Pemetrexed; first compound 0.8 µM) | relative viability (Avagacestat + Pemetrexed; first compound 2.53 µM) | relative viability (Avagacestat + Pemetrexed; first compound 8 µM) | relative viability (Avagacestat + Crizotinib; first compound 0.08 µM) | relative viability (Avagacestat + Crizotinib; first compound 0.253 µM) | relative viability (Avagacestat + Crizotinib; first compound 0.8 µM) | relative viability (Avagacestat + Crizotinib; first compound 2.53 µM) | relative viability (Avagacestat + Crizotinib; first compound 8 µM) | relative viability (Avagacestat + Dasatinib; first compound 0.08 µM) | relative viability (Avagacestat + Dasatinib; first compound 0.253 µM) | relative viability (Avagacestat + Dasatinib; first compound 0.8 µM) | relative viability (Avagacestat + Dasatinib; first compound 2.53 µM) | relative viability (Avagacestat + Dasatinib; first compound 8 µM) | relative viability (Avagacestat + Lapatinib; first compound 0.08 µM) | relative viability (Avagacestat + Lapatinib; first compound 0.253 µM) | relative viability (Avagacestat + Lapatinib; first compound 0.8 µM) | relative viability (Avagacestat + Lapatinib; first compound 2.53 µM) | relative viability (Avagacestat + Lapatinib; first compound 8 µM) |
| --- | --- | --- | --- | --- | --- | --- | --- | --- | --- | --- | --- | --- | --- | --- | --- | --- | --- | --- | --- | --- |
| NCI-H1648 | 0.572 | 0.505 | 0.451 | 0.467 | 0.505 |  |  |  |  |  |  |  |  |  |  |  |  |  |  |  |
| NCI-H441 | 0.269 | 0.252 | 0.272 | 0.271 | 0.298 | 0.977 | 0.816 | 0.71 | 1.19 | 0.629 | 0.518 | 0.471 | 0.541 | 0.532 | 0.454 |  |  |  |  |  |
| SW 900 | 0.485 | 0.507 | 0.474 | 0.486 | 0.482 |  |  |  |  |  | 0.821 | 0.599 | 0.547 | 0.848 | 0.558 |  |  |  |  |  |
| ABC-1 |  |  |  |  |  | 1.05 | 1.59 | 1.53 | 1.09 | 1.09 | 0.648 | 0.644 | 0.644 | 0.725 | 0.59 | 1.23 | 1.32 | 1.14 | 0.497 | 1.15 |
| NCI-H1793 | 0.907 | 1.03 | 1.07 | 0.94 | 0.785 |  |  |  |  |  | 0.445 | 0.383 | 0.319 | 0.282 | 0.337 | 1.13 | 0.648 | 1.08 | 0.627 | 0.769 |
| NCI-H1395 | 0.866 | 0.954 | 1.08 | 0.798 | 0.696 |  |  |  |  |  | 0.412 | 0.405 | 0.416 | 0.372 | 0.442 | 0.981 | 1.08 | 0.94 | 1.17 | 0.79 |
| ChaGo-K-1 | 0.275 | 0.271 | 0.265 | 0.266 | 0.267 | 1.06 | 1.31 | 1.11 | 1.05 | 0.974 | 0.616 | 0.641 | 0.628 | 0.551 | 0.608 |  |  |  |  |  |
| NCI-H522 | 0.933 | 1.27 | 0.774 | 1.04 | 1.07 |  |  |  |  |  | 0.942 | 0.886 | 0.861 | 0.927 | 1.07 |  |  |  |  |  |
| A549 |  |  |  |  |  | 1.27 | 1.26 | 0.771 | 0.808 | 0.623 |  |  |  |  |  | 1.58 | 0.977 | 1.09 | 0.939 | 1.11 |
| LCLC-103H | 0.448 | 0.412 | 0.433 | 0.456 | 0.486 | 1.03 | 1.09 | 1.01 | 0.967 | 0.831 | 0.456 | 0.46 | 0.508 | 0.368 | 0.678 |  |  |  |  |  |
| NCI-H1299 |  |  |  |  |  | 1.01 | 1.05 | 0.952 | 0.98 | 0.91 |  |  |  |  |  | 1.03 | 0.984 | 0.988 | 0.924 | 0.926 |
| NCI-H727 |  |  |  |  |  | 0.986 | 0.956 | 1.08 | 0.946 | 0.775 | 0.35 | 0.355 | 0.5 | 0.369 | 0.41 | 0.939 | 0.875 | 1.19 | 0.876 | 0.671 |
| Calu-6 |  |  |  |  |  | 0.998 | 0.968 | 0.885 | 0.824 | 0.691 |  |  |  |  |  | 1.41 | 1.41 | 1.26 | 1.47 | 1.03 |
